Values joined by “and” are separate entries in the source; they are usually repeats but may differ in a detail not shown here. Equal values may be shown once.
Key:
VCB [1] = biological target: VCB (Homo sapiens, UniProt P40337); assay: Fluorescence polarization displacement of FAM-labeled HIF-1α peptide from VCB; type: binding
Description: (§1) Assays were performed in duplicates on ProxiPlate-384 F Plus (Revvity, #6008260) with a total well volume of 16 µL. Each well contained 50 nM of FAM-labeled HIF-1α peptide (FAM-DEALA-Hyp-YIPD, biotechne, #7287), 500 nM of VCB protein, and a titration of G6374 (2-fold serial dilutions from […] to 625 nM, then 1.3-fold serial dilutions to 284.5 nM, followed by 2-fold serial dilutions to 8.9 nM) or IRE1.KR:G6374 (constant concentration of 2.4 µM IRE1.KR and the same serial dilution of G6374 as mentioned above) in 50 mM HEPES pH 7.2, 100 mM NaCl, 1 mM TCEP, and 0.002% Tween 20 with a final concentration of DMSO of 1.5%. The plate was incubated at room temperature in the dark, first for 5 min on a shaker at 300 rpm, then for another 30 min on the bench. FP was measured using the EnVision Multimode Plate Reader (PerkinElmer) with fluorescence excitation and emission wavelengths of 480 nm and 535 nm. The percentage of HIF-1α displacement was calculated by normalization to maximum fluorescence anisotropy (or 0% displacement of the HIF-1α peptide) and minimum fluorescence anisotropy (or 100% displacement of the HIF-1α peptide), which were determined by “top” and “bottom” values of the curve fit of fluorescence anisotropy against G6374 concentration in GraphPad Prism 10 (GraphPad Software, Inc.). The IC50 values were then determined by curve fitting with the percentage of HIF-1α displacement against G6374 concentration in GraphPad Prism 10 (GraphPad Software, Inc.).

VCB [2] = assay: as above; type: binding; details: ratio between IC50 of VCB: G6374 and VCB: (G6374 + IRE1)
Description: as §1

[3] = system: panel of 220 human kinases; assay: SelectScreen kinase profiling, panel of 220 kinases; type: biochemical; details: 1 µM, 1 h, besides IRE1
Description: The kinome selectivity of G6374 was assessed at 1 μM for 1 h versus a panel of 220 human kinases (SelectScreen Kinase Profiling Services, Thermo Fisher Scientific). The assays were conducted using either the Z’-LYTE technology to assess inhibition of enzyme activity ([ATP] = Km) or the TR-FRET-based LanthaScreen Eu Kinase Binding assay to assess competitive displacement of an ATP site binding probe. Assay results were normalized to positive and negative controls to determine percent inhibition. Image was created by KNIME Report Designer (KNIME.com AG, Zurich, Switzerland). Kinases for which ATP binding was inhibited by more than 90% were further examined by IB analysis for depletion by G6374 in AMO1 cells (4 h incubation).

IRE1:VHL = IRE1:VHL (Homo sapiens, UniProt O75460+P40337); assay: co-IP of endogenous VHL with endogenous IRE1 from AMO1 cells; type: cell-based; parameters: co-IP of endogenous VHL with endogenous IRE1 from AMO1 cells; endogenous in cells; host or cells: AMO1; details: titration of G6374
Chain of IRE1:VHL (O75460 19-977): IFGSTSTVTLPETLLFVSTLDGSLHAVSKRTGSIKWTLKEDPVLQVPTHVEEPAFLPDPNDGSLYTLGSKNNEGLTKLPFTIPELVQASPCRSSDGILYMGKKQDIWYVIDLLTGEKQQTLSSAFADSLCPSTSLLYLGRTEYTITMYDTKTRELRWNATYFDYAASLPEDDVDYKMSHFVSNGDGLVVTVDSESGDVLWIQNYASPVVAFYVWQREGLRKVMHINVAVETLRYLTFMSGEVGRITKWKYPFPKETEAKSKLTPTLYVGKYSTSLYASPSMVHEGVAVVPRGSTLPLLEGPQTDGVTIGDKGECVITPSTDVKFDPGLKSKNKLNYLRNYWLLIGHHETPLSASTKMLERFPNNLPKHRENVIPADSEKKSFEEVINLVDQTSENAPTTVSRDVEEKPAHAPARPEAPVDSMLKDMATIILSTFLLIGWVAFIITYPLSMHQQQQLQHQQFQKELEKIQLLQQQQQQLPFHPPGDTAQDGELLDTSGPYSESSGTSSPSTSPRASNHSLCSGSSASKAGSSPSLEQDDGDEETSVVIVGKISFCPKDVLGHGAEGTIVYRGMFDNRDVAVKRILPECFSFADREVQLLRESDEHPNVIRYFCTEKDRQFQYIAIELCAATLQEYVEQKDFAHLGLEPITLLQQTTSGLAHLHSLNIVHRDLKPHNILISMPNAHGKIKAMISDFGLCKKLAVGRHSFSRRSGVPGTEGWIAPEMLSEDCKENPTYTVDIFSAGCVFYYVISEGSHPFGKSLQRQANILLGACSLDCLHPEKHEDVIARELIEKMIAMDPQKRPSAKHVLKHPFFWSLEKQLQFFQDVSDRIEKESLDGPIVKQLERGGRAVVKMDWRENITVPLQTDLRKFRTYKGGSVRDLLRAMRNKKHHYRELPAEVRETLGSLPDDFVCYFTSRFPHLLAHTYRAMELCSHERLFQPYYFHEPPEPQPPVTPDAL
Chain of IRE1:VHL (P40337 whole entry): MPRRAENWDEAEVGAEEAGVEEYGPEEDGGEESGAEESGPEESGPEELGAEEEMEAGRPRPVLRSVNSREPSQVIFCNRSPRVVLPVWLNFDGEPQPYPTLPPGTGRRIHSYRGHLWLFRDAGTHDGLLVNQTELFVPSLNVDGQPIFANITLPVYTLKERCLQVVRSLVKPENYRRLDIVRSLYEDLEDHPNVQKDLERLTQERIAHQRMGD
Chain of IRE1:VHL (Q15369 whole entry partner): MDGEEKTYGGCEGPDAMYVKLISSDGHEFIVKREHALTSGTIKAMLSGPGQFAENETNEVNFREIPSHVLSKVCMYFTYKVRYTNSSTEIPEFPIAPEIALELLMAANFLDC
Chain of IRE1:VHL (Q15370 whole entry partner): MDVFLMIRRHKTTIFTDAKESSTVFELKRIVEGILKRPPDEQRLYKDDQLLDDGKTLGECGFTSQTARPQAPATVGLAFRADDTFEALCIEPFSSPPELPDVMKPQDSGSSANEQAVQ
Chain of IRE1:VHL (Q13617 whole entry partner): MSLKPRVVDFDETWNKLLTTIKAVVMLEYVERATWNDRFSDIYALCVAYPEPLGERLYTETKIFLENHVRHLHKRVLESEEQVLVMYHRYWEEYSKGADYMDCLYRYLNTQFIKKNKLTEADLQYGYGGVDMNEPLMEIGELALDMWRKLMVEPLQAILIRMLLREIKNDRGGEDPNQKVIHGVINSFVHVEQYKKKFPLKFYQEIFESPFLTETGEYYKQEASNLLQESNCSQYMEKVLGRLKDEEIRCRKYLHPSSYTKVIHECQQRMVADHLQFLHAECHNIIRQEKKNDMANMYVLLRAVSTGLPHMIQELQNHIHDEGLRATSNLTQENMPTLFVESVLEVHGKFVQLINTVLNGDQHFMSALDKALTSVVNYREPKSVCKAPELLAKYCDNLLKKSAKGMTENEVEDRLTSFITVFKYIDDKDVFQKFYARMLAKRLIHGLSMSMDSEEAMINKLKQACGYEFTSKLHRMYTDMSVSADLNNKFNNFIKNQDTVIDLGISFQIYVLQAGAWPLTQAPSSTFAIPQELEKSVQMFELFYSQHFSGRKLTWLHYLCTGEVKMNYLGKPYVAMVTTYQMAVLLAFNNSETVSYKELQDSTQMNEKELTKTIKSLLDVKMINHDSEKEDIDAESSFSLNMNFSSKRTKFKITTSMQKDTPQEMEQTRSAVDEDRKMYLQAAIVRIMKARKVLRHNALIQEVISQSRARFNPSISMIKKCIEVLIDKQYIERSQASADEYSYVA
Chain of IRE1:VHL (P62877 whole entry partner): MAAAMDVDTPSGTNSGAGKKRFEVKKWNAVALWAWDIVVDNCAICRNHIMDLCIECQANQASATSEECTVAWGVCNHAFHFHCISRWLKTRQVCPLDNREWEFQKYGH
Description: Cells were lysed in buffer containing 20 mM HEPES 7.2, 150 mM NaCl, and 1% Triton X-100, supplemented with fresh protease and phosphatase inhibitors (Invitrogen, #78440), cleared by centrifugation at 12,000 × g for 10 min, and analyzed by BCA protein assay (Thermo Fisher Scientific, #23227). Equal protein amounts were loaded, separated by SDS-PAGE, electrotransferred to nitrocellulose membranes using the iBLOT2 system (Invitrogen), and blocked in 5% nonfat milk solution for 60 min. Membranes were probed with primary antibodies at 1:1000 dilution in 5% milk at 4 °C overnight. Signal was detected using appropriate horseradish peroxidase (HRP)-conjugated secondary antibodies at 1:10,000 in 5% milk at room temperature for 1–2 h. Bands were visualized by the Azure 600 western blot imaging system (Azure Biosystems). For in vitro ubiquitination assays performed with Me-Ub, bands were visualized by the Odyssey CLx Imager (LI‑COR) after incubating the blots with the IRDye 800CW (LI-COR) secondary antibodies at 1:10,000 in Intercept Blocking Buffer (LI-COR) at room temperature for 1–2 h.
IRE1.LD antibodies were conjugated to agarose beads using the AminoLink® Plus Immobilization Kit (Thermo Fisher, #44894). […]

Colo201 cells = assay: Incucyte cell confluency, Colo201 cells; type: cell-based; details: Colo201 shIRE1 cells, titration
Description: For non-adherent AMO1, KMS27, and OPM2 cells, cells were plated at 5000 cells/well in ultra-low attachment (ULA) 96-well plates (Costar, #7007) and centrifuged at 600 × g for 5 min for spheroid formation. For adherent U2OS and Colo201 cells, 2000 cells/well were seeded in a clear flat-bottom 96-well plate (Costar, #3595). Treatments were added at the time of cell seeding, and cells were cultured in complete RPMI media to a final volume of 200 µL/well. Cultures were maintained at 37 °C throughout the duration of the experiment. Cell confluency was tracked using the Incucyte live-cell imaging system (Sartorius S3). Picture frames were captured every 4 h with a 4× objective, and cell confluency (%) from the total well area as a function of time was calculated using the Incucyte software (version 2023 A Rev2).

Chain of VCB (Homo sapiens, UniProt P40337) (Q15370 whole entry): as the sequence (Q15370 whole entry partner) above
Chain of VCB (Homo sapiens, UniProt P40337) (Q15369 17-112, further chain): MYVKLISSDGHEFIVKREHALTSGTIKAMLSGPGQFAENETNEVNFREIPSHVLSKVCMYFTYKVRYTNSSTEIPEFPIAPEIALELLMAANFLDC
Chain of VCB (Homo sapiens, UniProt P40337) (P40337 55-213): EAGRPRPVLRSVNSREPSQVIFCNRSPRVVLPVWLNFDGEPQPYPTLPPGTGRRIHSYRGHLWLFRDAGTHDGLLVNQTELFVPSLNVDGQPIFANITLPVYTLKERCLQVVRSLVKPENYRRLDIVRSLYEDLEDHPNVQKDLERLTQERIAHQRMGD

SMILES: Cc1ncsc1-c1ccc(CNC(=O)[C@@H]2C[C@@H](O)CN2C(=O)[C@@H](NC(=O)CCCCN2CCN([C@H]3CC[C@H](Nc4ncc5ccc(=O)n(C(C)C)c5n4)CC3)CC2)C(C)(C)C)cc1 [G6374]
- IC50 (VCB [1]; G6374 alone, absence of IRE1, N=3, mean ± SEM): 2480 ± 112 nM
- IC50 (VCB [1]; G6374 in the presence of saturating IRE1 (2.4 µM), N=3, mean ± SEM): 492 ± 21 nM
- Cooperativity alpha (VCB [2]): 5 and 5 ± 0.15
- number of other kinases inhibited by >90% [3]: 9
- induced IRE1:VHL interaction (co-IP) (IRE1:VHL): induced a much stronger interaction between the two proteins
- proliferation rate (cell confluency) (Colo201 cells): did not affect the proliferation rate

Reference: article PMC12749748, “Chemically-induced degradation of the endoplasmic-reticulum stress sensor IRE1 by a VHL-recruiting chimera” (Nature Communications, 2025)
